Columns and labels:
[1] = biological target: T1, p53-MDM2 interaction (human MDM2 protein, amino acids 2-188) (Homo sapiens, UniProt Q00987); assay: p53-MDM2 Assay 1: TR-FRET inhibition of p53-MDM2 interaction; type: binding; conditions: 1.25 nM MDM2-biotinylated, 10 nM Cy5-p53 peptide
T1 construct: human MDM2 protein (amino acids 2-188); made in house
Method: (§1) Time Resolved Fluorescence Energy Transfer (TR-FRET) Assay
(§2) The inhibition of p53-MDM2 and p53-MDM4 interactions is measured by time resolved fluorescence energy transfer (TR-FRET). Fluorescence energy transfer (or Foerster resonance energy transfer) describes an energy transfer between donor and acceptor fluorescent molecules. For this assay, human MDM2 protein (amino acids 2-188) and human MDM4 protein (amino acids 2-185), tagged with a C-terminal biotin moiety, are used in combination with a Europium labeled streptavidin (Perkin Elmer, Inc., Waltham, Mass., USA) serving as the donor fluorophore. The p53 derived, Cy5 labeled peptide Cy5-TFSDLWKLL (p53 aa18-26) is the energy acceptor. Upon excitation of the donor molecule at 340 nm, binding interaction between MDM2 or MDM4 and the p53 peptide induces energy transfer and enhanced response at the acceptor emission wavelength at 665 nm. Disruption of the formation of the p53-MDM2 or p53-MDM4 complex due to an inhibitor molecule binding to the p53 binding site of MDM2 or MDM4 results in increased donor emission at 620 nm. The ratiometric FRET assay readout is calculated from the raw data of the two distinct fluorescence signals measured in time resolved mode (fluorescence 665 nm/fluorescence 620 nm×1000).
(§3) After addition of 1.25 nM MDM2-biotinylated or 2.5 nM MDM4-biotinylated (internal preparations, both MDM2 and MDM4 are biotinylated at the C-terminal of the peptide construct), and 0.625 nM Europium labeled streptavidin (Perkin Elmer), the solution is pre-incubated for 15 minutes at room temperature, then 10 nM Cy5-p53 peptide (internal preparation, the Cy5 dye is directly bound to the N-terminal part of p53 peptide construct) is added before an incubation at room temperature for 15 minutes prior to reading the plate. For measurement of samples, a Victor II microplate reader (Perkin Elmer) is used with the following settings: Excitation 340 nm, Emission Donor 620 nm and Emission Acceptor 665 nm. IC50 values are calculated by curve fitting using XLfit. If not specified, reagents are purchased from Sigma-Aldrich Chemie GmBH, Buchs, Switzerland.
(§4) This assay was used to evaluate compounds displaying inhibition of p53-MDM2 interaction and p53-MDM4 interaction at IC50s of 0.005 to 50 μM (p53-MDM2 Assay 1 and p53-MDM4 Assay 1, respectively). For selected compounds displaying IC50s between […] on MDM2, a slightly modified assay is used with the following adaptations: 0.1 nM MDM2, 0.1 nM Europium labeled streptavidin and Tecan genios Pro is used as a microplate reader for the fluorescence measurements (p53-MDM2 Assay 2).

[2] = biological target: T1, p53-MDM2 interaction (human MDM2 protein, amino acids 2-188); assay: p53-MDM2 Assay 2: slightly modified TR-FRET assay; type: binding; conditions: 0.1 nM MDM2, 0.1 nM Europium labeled streptavidin, Tecan genios Pro reader
Method: as §1, §2, §3, §4

[3] = biological target: T2, p53-MDM4 interaction (human MDM4 protein, amino acids 2-185) (Homo sapiens, UniProt O15151); assay: p53-MDM4 Assay 1: TR-FRET inhibition of p53-MDM4 interaction; type: binding; conditions: 2.5 nM MDM4-biotinylated, 10 nM Cy5-p53 peptide
T2 construct: human MDM4 protein (amino acids 2-185); made in house
T2 sequence (O15151 2-185): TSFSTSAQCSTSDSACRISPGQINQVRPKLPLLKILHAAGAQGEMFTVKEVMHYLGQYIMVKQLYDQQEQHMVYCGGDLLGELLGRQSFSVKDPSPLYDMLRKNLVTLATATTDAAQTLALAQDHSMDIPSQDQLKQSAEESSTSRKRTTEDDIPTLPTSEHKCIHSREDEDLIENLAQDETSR
Method: as §1, §2, §3, §4

T1 sequence (Q00987 2-188): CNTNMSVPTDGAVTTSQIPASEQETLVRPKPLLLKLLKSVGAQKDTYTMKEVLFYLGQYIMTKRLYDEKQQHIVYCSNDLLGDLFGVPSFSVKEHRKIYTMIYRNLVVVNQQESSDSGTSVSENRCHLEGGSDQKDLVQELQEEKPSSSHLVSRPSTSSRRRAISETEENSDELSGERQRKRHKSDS

Compound	IC50 [1]	IC50 [2]	IC50 [3]	melting point
CCn1cc(N2C(=O)Nc3nn(-c4ccccc4OC)c(C(C)C)c3C2c2ccc(Cl)cc2)cc(Cl)c1=O (centres unmarked) [Example 14, 5-(5-Chloro-1-ethyl-6-oxo-1,6-dihydro-pyridin-3-yl)-4-(4-chloro-phenyl)-3-isopropyl-2-(2-methoxy-phenyl)-2,4,5,7-tetrahydro-pyrazolo[3,4-d]pyrimidin-6-one]	1.5 nM	0.33 nM	1480 nM	
COc1ccccc1-n1nc2c(c1C(C)C)C(c1ccc(Cl)cc1C)N(c1cc(Cl)c(=O)n(C)c1)C(=O)N2 (centres unmarked) [Example 15, 5-(5-Chloro-1-methyl-6-oxo-1,6-dihydro-pyridin-3-yl)-4-(4-chloro-2-methyl-phenyl)-3-isopropyl-2-(2-methoxy-phenyl)-2,4,5,7-tetrahydro-pyrazolo[3,4-d]pyrimidin-6-one]	1.45 nM	0.18 nM	1550 nM	
COc1ccccc1-n1nc2c(c1C(C)C)C(c1ccc(Cl)cc1)N(c1cc(Cl)c(=O)n(C)c1)C(=O)N2 (centres unmarked) [Example 13, 5-(5-Chloro-1-methyl-6-oxo-1,6-dihydro-pyridin-3-yl)-4-(4-chloro-phenyl)-3-isopropyl-2-(2-methoxy-phenyl)-2,4,5,7-tetrahydro-pyrazolo[3,4-d]pyrimidin-6-one]	1.6 nM	0.25 nM	2180 nM	
COc1ccccc1-n1nc2c(c1C(C)C)C(c1ccc(Cl)cc1C)N(c1cccc(Cl)c1F)C(=O)N2 (centres unmarked) [Example 5, 5-(3-Chloro-2-fluoro-phenyl)-4-(4-chloro-2-methyl-phenyl)-3-isopropyl-2-(2-methoxy-phenyl)-2,4,5,7-tetrahydro-pyrazolo[3,4-d]pyrimidin-6-one]	1.45 nM		1710 nM	140 to 143 °C
CCn1cc(N2C(=O)Nc3nn(-c4ccccc4OC)c(C(C)C)c3C2c2ccc(Cl)cc2C)cc(Cl)c1=O (centres unmarked) [Example 21, 5-(5-Chloro-1-ethyl-6-oxo-1,6-dihydropyridin-3-yl)-4-(4-chloro-2-methylphenyl)-3-isopropyl-2-(2-methoxyphenyl)-4,5-dihydro-2H -pyrazolo[3,4-d]pyrimidin-6(7H)-one]	1.4 nM	0.19 nM	1630 nM	
COCCn1cc(N2C(=O)Nc3nn(-c4ccccc4OC)c(C(C)C)c3C2c2ccc(Cl)cc2C)cc(Cl)c1=O (centres unmarked) [Example 19, 5-[5-Chloro-1-(2-methoxy-ethyl)-6-oxo-1,6-dihydro-pyridin-3-yl]-4-(4-chloro-2-methyl-phenyl)-3-isopropyl-2-(2-methoxy-phenyl)-2,4,5,7-tetrahydro-pyrazolo[3,4-d]pyrimidin-6-one]	1.3 nM	0.17 nM	1350 nM	
CC(C)=CCn1nc2c(c1C(C)C)C(c1ccc(Cl)cc1C)N(c1cccc(Cl)c1F)C(=O)N2 (centres unmarked) [Example 4, 5-(3-chloro-2-fluorophenyl)-4-(4-chloro-2-methylphenyl) -3-isopropyl-2-(3-methylbut-2-en-1-yl)-4,5-dihydro-2H-pyrazolo[3,4-d]pyrimidin-6(7H)-one]	3.5 nM		78800 nM	81 to 83 °C
Cc1cc(Cl)ccc1C1c2c(nn(Cc3ccccc3)c2C(C)C)NC(=O)N1c1cc(Cl)ccc1C (centres unmarked) [Example 11, 2-Benzyl-4-(4-chloro-2-methyl-phenyl)-5-(5-chloro-2-methyl-phenyl)-3-isopropyl-2,4,5,7-tetrahydro-pyrazolo[3,4-d]pyrimidin-6-one]	3.5 nM			105 to 107 °C
COc1ccccc1-n1nc2c(c1C(C)C)[C@H](c1ccc(Cl)cc1C)N(c1cccc(Cl)c1F)C(=O)N2 [Example 6, (S)-5-(3-Chloro-2-fluoro-phenyl)-4-(4-chloro-2-methyl-phenyl)-3-isopropyl-2-(2-methoxy-phenyl)-2,4,5,7-tetrahydro-pyrazolo[3,4-d]pyrimidin-6-one]	0.7 nM	0.42 nM	2760 nM	
COc1ccccc1-n1nc2c(c1C(C)C)C(c1ccc(Cl)cc1)N(c1cc(Cl)c(=O)n(CCO)c1)C(=O)N2 (centres unmarked) [Example 18, 5-[5-Chloro-1-(2-hydroxy-ethyl)-6-oxo-1,6-dihydro-pyridin-3-yl]-4-(4-chloro-phenyl)-3-isopropyl-2-(2-methoxy-phenyl)-2,4,5,7-tetrahydro-pyrazolo[3,4-d]pyrimidin-6-one]	1.6 nM	0.56 nM	2370 nM	
COc1ccccc1-n1nc2c(c1C(C)C)C(c1ccc(Cl)cc1C)N(c1cc(Cl)ccc1C)C(=O)N2 (centres unmarked) [Example 10, 4-(4-Chloro-2-methyl-phenyl)-5-(5-chloro-2-methyl-phenyl)-3-isopropyl-2-(2-methoxy-phenyl)-2,4,5,7-tetrahydro-pyrazolo[3,4-d]pyrimidin-6-one]	1.1 nM	0.21 nM	4700 nM	
COc1ccccc1-n1nc2c(c1C(C)C)C(c1ccc(Cl)cc1)N(c1cc(Cl)c(=O)n(CCN(C)C)c1)C(=O)N2 (centres unmarked) [Example 22, 5-[5-Chloro-1-(2-dimethylamino-ethyl)-6-oxo-1,6-dihydro-pyridin-3-yl]-4-(4-chloro-phenyl)-3-isopropyl-2-(2-methoxy-phenyl)-2,4,5,7-tetrahydro-pyrazolo[3,4-d]pyrimidin-6-one]	2.7 nM	1.43 nM	6230 nM	
Cc1cc(Cl)ccc1C1c2c(nn(Cc3ccccn3)c2C(C)C)NC(=O)N1c1cccc(Cl)c1F (centres unmarked) [Example 8, 5-(3-Chloro-2-fluoro-phenyl)-4-(4-chloro-2-methyl-phenyl)-3-isopropyl-2-pyridin-2-ylmethyl-2,4,5,7-tetrahydro-pyrazolo[3,4-d]pyrimidin-6-one]	3.2 nM		8200 nM	150 to 153 °C

— US9556180B2, “Pyrazolo[3,4-d]pyrimidinone compounds as inhibitors of the P53/MDM2 interaction” (Novartis AG, priority 2013, dated 2017)
